Where two headings read alike, the source gives them in different places.
Columns and labels:
[1] = system: gastric acid secretion induced by pentagastrin; assay: Antisecretive activity in anaesthetised rats (pentagastrin-stimulated gastric acid secretion); format: in vivo; conditions: pentagastrin 30 mcg/Kg/h; for ED50: Rattus norvegicus, iv, anaesthetised male rats, I.V. bolus, IN with bound, read-out: Antagonistic activity (ID50) towards gastric acid secretion induced by pentagastrin; for Antigastrin activity (in words): anaesthetised rats
Procedure: Antisecretive activity in anaesthetised rats
Antisecretive activity in rats was determined with the use of male animals each weighing about 200 g, anaesthetised with urethane. Gastric secretion was stimulated with pentagastrin. The method of K. S. Lai (Gut 5, (1964), 327-341) was used, slightly modified.
After tracheotomy, cannulae were inserted in the oesophagus and the duodenum. A tepid solution. (37° C.) of 0.25 mM NaOH was perfused and passed through the stomach by means of a peristaltic pump at a constant flow rate of 1 ml/minute. After stabilisation for 20 minutes, the stimulating agent, dissolved in a physiological solution, was perfused for 120 minutes at a dose of 30 mcg/Kg/h in a volume of 0.95 ml/hour. After perfusion for 60 minutes (the basal stimulation), the product under test was administered as an intravenous bolus (I.V.) and the perfusion of the stimulant continued for a further 60 minutes. Acid secretion was recorded continuously as a function of time.
The activity of the product was evaluated as the percentage reduction in the secreted acidity after the administration of the product compared with the base acidity measured during the first 60 minutes of collection during which only the pentagastrin was present.
Different doses of the antagonist compounds tested were administered so that an ID50, that is, the dose (in mg/Kg I.V.) capable of inhibiting the effect of pentagastrin by 50%, could be calculated.
The results thus obtained are illustrated in the following table (Table 1) in which the activities of the compounds are expressed as the ID50s under the stimulus of 30 mcg/Kg/h of pentagastrin.

[2] = system: guinea-pig gall bladder contracted with CCK-8; assay: Anticholecystokinin (anti-CCK) activity on guinea-pig gall bladders stimulated by CCK-8 in vitro; conditions: for Anti-CCK activity IC50: CCK-8 concentration 10 ng/ml, Krebs, 32° C.; for Antagonism of contracturant activity of CCK-8 relative to lorglumide (in words): vs lorglumide
Procedure: Anticholecystokinin (anti-cc, K) activity
In order to confirm the hypothesis that the molecular conformations of the compounds of the invention are suitable to provide them with antagonistic activity towards CCK as well as towards gastrin, the anticontracturant activities of some of the compounds of the invention were tested on guinea-pig gall bladders stimulated by CCK-8 in vitro.
A longitudinal strip of guinea-pig gall bladder was placed in a bath for isolated organs in the presence of Krebs at a temperature of 32° C. and oxygenated continuously with an oxygen-CO2 mixture (95-5 V/V).
The isometric contractions were detected by means of a force transducer and recorded.
The gall bladder was contracted with the use of a concentration of 10 ng/ml of CCK-8; the antagonistic activities of the compounds towards the contracturant effect of the CCK was determined with the use of different concentrations, thus determining the IC50 values, that is, the concentration of the compound in mcg/ml which can antagonise the contracturant effect of CCK by 50%.

[3] = target: T1, gastrin receptor sites on the cerebral cortex membranes of mice (Mus musculus, UniProt P56481); assay: Inhibition of the binding of pentagastrin to mouse cortical membranes
T1 construct: Mouse cortical tissue; from tissue; host or cells: mouse cerebral cortex membranes
T1 sequence (P56481 1-453): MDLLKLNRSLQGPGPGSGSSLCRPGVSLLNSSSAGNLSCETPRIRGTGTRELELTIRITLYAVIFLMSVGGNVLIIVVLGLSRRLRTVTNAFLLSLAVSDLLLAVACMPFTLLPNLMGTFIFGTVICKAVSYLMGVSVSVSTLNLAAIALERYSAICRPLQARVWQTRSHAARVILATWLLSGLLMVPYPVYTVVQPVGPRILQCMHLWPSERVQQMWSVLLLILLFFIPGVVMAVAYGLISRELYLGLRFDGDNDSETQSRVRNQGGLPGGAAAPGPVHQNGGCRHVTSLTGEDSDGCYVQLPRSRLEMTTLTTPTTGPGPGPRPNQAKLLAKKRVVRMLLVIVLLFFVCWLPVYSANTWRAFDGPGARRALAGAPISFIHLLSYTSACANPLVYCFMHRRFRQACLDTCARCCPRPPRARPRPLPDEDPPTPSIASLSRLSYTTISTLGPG
Text: Tests on binding to cerebral cortex membranes of mice
The capacities of some of the compounds of the invention to inhibit the binding of pentagastrin to the gastrin receptor sites on the cerebral cortex membranes of mice was to be evaluated. Pentagastrin tritiate[beta-alanyl-3-3H(N)] was used as the ligand.
Mouse cortical tissue Was homogenised cold in 20 volumes of tris buffer (pH 7.7). After washing and centrifuging, the final pellet was resuspended in 20 volumes of binding buffer containing, inter alia, TRIS, BSA and Bacitracin. 0.4 ml of the membrane thus obtained were then incubated with a radioactive tracer and the compounds under test for 40 minutes at 37° C.
After the supernatant liquid had been removed by centrifuging, the radioactivity associated with the pellet was determined with a liquid scintillator (a beta-counter). The specific binding was the difference between the binding in the absence and in the presence of 10^-5M pentagastrin.

[4] = pentagastrin tritiate ligand, 40 minutes at 37° C., read-out: IC50, inhibition of the binding of pentagastrin

SMILES	ED50 [1] [mg/kg]	IC50 [3, 4] [nM]	further results
O=C(O)CC[C@@H](NC(=O)c1cc(Cl)cc(Cl)c1)C(=O)N1CCC2(CCCC2)C1 [Compound C7]	60		
O=C(O)CC[C@@H](NC(=O)c1cccnc1Cl)C(=O)N1CCC2(CCCC2)CC1 [Compound C25]	69		
O=C(O)CC[C@@H](NC(=O)c1cccc(Cl)c1)C(=O)N1CCC2CCCCC2C1 (stereo partly shown) [Compound C29]	35	800	Anti-CCK activity IC50 [2]: 234 µg/mL
O=C(O)CCC(NC(=O)c1cccc(Cl)c1)C(=O)N1CCC2(CC1)OCC(CO)O2 (stereo not shown) [Compound D2]	85		Anti-CCK activity IC50 [2]: 108 µg/mL; IC50 [3]: > 10000 nM
COc1cccc(C(=O)N[C@H](CCC(=O)O)C(=O)N2CCC3(CCCC3)CC2)c1 [Compound C15]	46		
O=C(O)CC[C@@H](NC(=O)c1cccc([N+](=O)[O-])c1)C(=O)N1CCC2(CCCC2)CC1 [Compound C14]	68	8100	
O=C(O)CCC(NC(=O)c1cccc(Cl)c1)C(=O)NC1CCC2CCCCC2C1 (stereo not shown) [Compound D6]	60		
CC(C)c1ccc(C(=O)N[C@H](CCC(=O)O)C(=O)N2CCC3(CCCC3)CC2)cc1 [Compound C18]	28		
O=C(O)CC[C@@H](NC(=O)c1cccc(Cl)c1)C(=O)N1CCC2(CCCC2)C1 [Compound C3]	75		Anti-CCK activity IC50 [2]: 43 µg/mL
O=C(O)CC[C@@H](NC(=O)c1ccc(Cl)c(Cl)c1)C(=O)N1CCC2(CCCCC2)CC1 [Compound C20]	64		Anti-CCK activity IC50 [2]: 0.5 µg/mL; Antagonism of contracturant activity of CCK-8 relative to lorglumide (in words) [2]: at concentrations no greater than those shown by lorglumide
O=C(O)CCC(NC(=O)c1cccc(Cl)c1)C(=O)N1CCC2(CC1)SCCS2 (racemic) [Compound D1, (R,S) (±)-4-[(3-chlorobenzoyl)amino]-5-(1.4-dithia-8-azaspiro[4.5]decan-8-yl)-5-oxopentanoic acid]	> 75	2600	
O=C(O)CC[C@@H](NC(=O)c1ccco1)C(=O)N1CCC2(CCCC2)CC1 [Compound C24]	> 75		
CCc1cccc(C(=O)N[C@H](CCC(=O)O)C(=O)N2CCC3(CCCC3)CC2)c1 [Compound C12]	38		
O=C(O)CC[C@@H](NC(=O)c1cc(Cl)cc(Cl)c1)C(=O)N1CCC2(CC1)OCCO2 [Compound C28]	70		
O=C(O)CC[C@@H](NC(=O)c1cccc(Cl)c1)C(=O)N1CCC2(CC1)OCCO2 [Compound C27]	81		
N#Cc1cccc(C(=O)N[C@H](CCC(=O)O)C(=O)N2CCC3(CCCC3)CC2)c1 [Compound C16]	66		
O=C(O)CC[C@@H](NC(=O)c1cccc(Cl)c1)C(=O)NCCC12CC3CC(CC(C3)C1)C2 [Compound C30]	25	30	Antigastrin activity (in words) [1]: particularly favourable; Anti-CCK activity IC50 [2]: 59 µg/mL
Cc1cccc(C(=O)N[C@H](CCC(=O)O)C(=O)N2CCC3(CCCC3)CC2)c1 [Compound C11]	38		
O=C(O)CC[C@@H](NC(=O)c1cc(Cl)cc(Cl)c1)C(=O)N1CCC2(CCCCC2)C1 [Compound C6]	45	320	

SMILES	ED50 [1] [mg/kg]	IC50 [3, 4] [nM]	further results
O=C(O)CC[C@@H](NC(=O)c1cc(Cl)cc(Cl)c1)C(=O)NCCC12CC3CC(CC(C3)C1)C2 [Compound C31]	20		Antigastrin activity (in words) [1]: particularly favourable
O=C(O)CC[C@@H](NC(=O)c1cccc(Cl)c1)C(=O)N1CCC2(CCCCC2)C1 [Compound C4]	49		
O=C(O)CCC(NC(=O)c1cccc(Cl)c1)C(=O)N1CCC2(CC1)OCCS2 (stereo not shown) [Compound D3]	67		
O=C(O)CC[C@H](NC(=O)c1cccc(Cl)c1)C(=O)N1CCC2(CCCC2)CC1 [Compound C32]	> 100	26000	Antigastrin activity (in words) [1]: completely inactive up to a dose of 100 mg/Kg
O=C(O)CC(NC(=O)c1cccc(Cl)c1)C(=O)N1CCC2(CCCC2)CC1 (stereo not shown) [Compound D4]	70	6800	Anti-CCK activity IC50 [2]: 36 µg/mL
O=C(O)CC[C@@H](NC(=O)c1cccc(Cl)c1Cl)C(=O)N1CCC2(CCCC2)CC1 [Compound C9]	40		
O=C(O)CC[C@@H](NC(=O)c1cnc2ccccc2c1)C(=O)N1CCC2(CCCCC2)CC1 [Compound C21]	> 75	510	Anti-CCK activity IC50 [2]: 0.2 µg/mL; Antagonism of contracturant activity of CCK-8 relative to lorglumide (in words) [2]: at concentrations no greater than those shown by lorglumide
O=C(O)CC[C@@H](NC(=O)c1cnc2ccccc2c1)C(=O)N1CCC2(CCCC2)CC1 [Compound C19]	68		Anti-CCK activity IC50 [2]: 1.5 µg/mL; Antagonism of contracturant activity of CCK-8 relative to lorglumide (in words) [2]: at concentrations no greater than those shown by lorglumide
O=C(O)CC[C@@H](NC(=O)c1cccc(C(F)(F)F)c1)C(=O)N1CCC2(CCCC2)CC1 [Compound C17]	55		
O=C(O)CCC(NC(=O)c1cc(Cl)cc(Cl)c1)C(=O)NC1CCC2CCCCC2C1 (stereo not shown) [Compound D7]	48		
O=C(O)CC[C@@H](NC(=O)c1cccc(Cl)c1)C(=O)NC1CCC2(CCCCC2)CC1 [Compound C22]	55		
O=C(O)CC[C@@H](NC(=O)c1cc(Cl)cc(Cl)c1)C(=O)NC1CCC2(CCCCC2)CC1 [Compound C23]	40	320	
CCCCCN(CCCCC)C(=O)C(CCC(=O)O)NC(=O)c1ccc(Cl)c(Cl)c1 (stereo not shown) [Lorglumide, lorglumide, reference compound]	> 100		Antigastrin activity (in words) [1]: completely inactive up to a dose of 100 mg/Kg; Anti-CCK activity IC50 [2]: 0.06 µg/mL
O=C(O)CC[C@@H](NC(=O)c1cc2ccccc2[nH]1)C(=O)N1CCC2(CCCC2)CC1 [Compound C26]	> 75		
O=C(O)CCCC(NC(=O)c1cccc(Cl)c1)C(=O)N1CCC2(CCCC2)CC1 (stereo not shown) [Compound D5]	32	1500	
O=C(O)CC[C@@H](NC(=O)c1cccc(Cl)c1)C(=O)N1CCC2(CCCCC2)CC1 [Compound C2]	33	140	Anti-CCK activity IC50 [2]: 4.9 µg/mL
O=C(O)CC[C@@H](NC(=O)c1ccc2ccccc2c1)C(=O)N1CCC2(CCCC2)CC1 [Compound C10]	45	100	Anti-CCK activity IC50 [2]: 1.0 µg/mL; Antagonism of contracturant activity of CCK-8 relative to lorglumide (in words) [2]: at concentrations no greater than those shown by lorglumide
CCCN(CCC)C(=O)C(CCC(=O)O)NC(=O)c1ccccc1 (stereo not shown) [Proglumide, proglumide, reference compound]	500		
Cc1cc(C)cc(C(=O)N[C@H](CCC(=O)O)C(=O)N2CCC3(CCCC3)CC2)c1 [Compound C13]	33		
